In ChEMBL document CHEMBL1275320, “Positive allosteric modulators of the α-amino-3-hydroxy-5-methyl-4-isoxazolepropionic acid (AMPA) receptor” (J Med Chem, 2010):
Values joined by “and” are separate entries in the source; they are usually repeats but may differ in a detail not shown here. Equal entries are not always repeated.

How the values were obtained:
[1] = Agonist activity at AMPA receptor by FLIPR assay; format: functional
Glutamate receptor 2 [2] = target: T1, Glutamate receptor 2 (Homo sapiens, UniProt P42262); assay: Inhibition of human recombinant GluR2
[3] = Agonist activity at AMPA receptor at 30 uM by FLIPR assay; format: functional
Glutamate receptor 4 [4] = target: Glutamate receptor 4 (Homo sapiens, UniProt P48058); assay: Inhibition of GluR4 expressed in HEK293 cells; format: cell-based
Glutamate receptor 2 [5] = target: T1, Glutamate receptor 2; assay: Agonist activity at GluR2 receptor; format: functional
Glutamate receptor 3 = Glutamate receptor 3 (Homo sapiens, UniProt P42263); assay: Inhibition of GluR3 expressed in HEK cells; format: cell-based, HEK293
Glutamate receptor 2 [6] = target: T1, Glutamate receptor 2; assay: Inhibition of GluR2 flop expressed in HEK cells; format: cell-based, HEK293
Glutamate receptor 1 = Glutamate receptor 1 (Homo sapiens, UniProt P42261); assay: Inhibition of GluR1 expressed in HEK cells; format: cell-based, HEK293
[7] = target: Glutamate receptor AMPA 3/4 (Rattus norvegicus, UniProt P19492+P19493); assay: Inhibition of GluR3/4 rat in hippocampal neuron; format: tissue-based, Hippocampus
Rattus norvegicus = organism: Rattus norvegicus; assay: Agonist activity at rat AMPA receptor assessed as change in EPSC amplitude; format: functional
[8] = target: Glutamate receptor AMPA 3/4 (Homo sapiens, UniProt P42263+P48058); assay: Inhibition of GluR3/4 expressed in Xenopus oocyte
[9] = Agonist activity at rat AMPA receptor assessed as AMPA-induced calcium uptake; format: functional
[10] = Agonist activity at AMPA receptor in rat cortical neurons assessed as change in increase in AMPA current; format: functional
Glutamate receptor 2 [11] = target: T1, Glutamate receptor 2; assay: Inhibition of GluR2 expressed in HEK cells at 3 uM; format: cell-based; settings: HEK293
Glutamate receptor 4 [12] = target: Glutamate receptor 4 (Rattus norvegicus, UniProt P19493); assay: Inhibition of rat recombinant GluR4 in cells
Chain of Glutamate receptor 4 (Rattus norvegicus, UniProt P19493) (P19493 whole entry): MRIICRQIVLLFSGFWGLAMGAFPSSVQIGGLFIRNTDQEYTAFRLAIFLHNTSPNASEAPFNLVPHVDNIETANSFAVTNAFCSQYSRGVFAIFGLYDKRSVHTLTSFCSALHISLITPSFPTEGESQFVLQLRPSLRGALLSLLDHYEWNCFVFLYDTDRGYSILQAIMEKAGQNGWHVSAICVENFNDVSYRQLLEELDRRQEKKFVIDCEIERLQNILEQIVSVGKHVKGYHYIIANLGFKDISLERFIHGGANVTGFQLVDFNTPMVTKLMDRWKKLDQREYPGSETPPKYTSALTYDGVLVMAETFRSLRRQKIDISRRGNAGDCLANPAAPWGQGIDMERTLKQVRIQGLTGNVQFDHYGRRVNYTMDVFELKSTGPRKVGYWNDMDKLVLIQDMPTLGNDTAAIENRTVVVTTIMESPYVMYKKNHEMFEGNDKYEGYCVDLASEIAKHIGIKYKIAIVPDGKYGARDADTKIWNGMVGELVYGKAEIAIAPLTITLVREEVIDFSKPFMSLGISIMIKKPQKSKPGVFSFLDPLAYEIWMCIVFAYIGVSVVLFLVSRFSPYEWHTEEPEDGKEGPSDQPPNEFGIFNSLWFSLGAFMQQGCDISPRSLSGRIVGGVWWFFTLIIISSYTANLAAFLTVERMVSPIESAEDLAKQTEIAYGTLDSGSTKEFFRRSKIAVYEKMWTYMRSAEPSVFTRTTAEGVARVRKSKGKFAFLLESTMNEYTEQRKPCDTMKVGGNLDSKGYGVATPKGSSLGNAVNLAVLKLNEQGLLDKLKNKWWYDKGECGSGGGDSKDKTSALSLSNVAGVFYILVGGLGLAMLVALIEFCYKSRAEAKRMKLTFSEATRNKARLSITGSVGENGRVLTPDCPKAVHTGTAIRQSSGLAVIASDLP

T1 sequence (P42262 whole entry): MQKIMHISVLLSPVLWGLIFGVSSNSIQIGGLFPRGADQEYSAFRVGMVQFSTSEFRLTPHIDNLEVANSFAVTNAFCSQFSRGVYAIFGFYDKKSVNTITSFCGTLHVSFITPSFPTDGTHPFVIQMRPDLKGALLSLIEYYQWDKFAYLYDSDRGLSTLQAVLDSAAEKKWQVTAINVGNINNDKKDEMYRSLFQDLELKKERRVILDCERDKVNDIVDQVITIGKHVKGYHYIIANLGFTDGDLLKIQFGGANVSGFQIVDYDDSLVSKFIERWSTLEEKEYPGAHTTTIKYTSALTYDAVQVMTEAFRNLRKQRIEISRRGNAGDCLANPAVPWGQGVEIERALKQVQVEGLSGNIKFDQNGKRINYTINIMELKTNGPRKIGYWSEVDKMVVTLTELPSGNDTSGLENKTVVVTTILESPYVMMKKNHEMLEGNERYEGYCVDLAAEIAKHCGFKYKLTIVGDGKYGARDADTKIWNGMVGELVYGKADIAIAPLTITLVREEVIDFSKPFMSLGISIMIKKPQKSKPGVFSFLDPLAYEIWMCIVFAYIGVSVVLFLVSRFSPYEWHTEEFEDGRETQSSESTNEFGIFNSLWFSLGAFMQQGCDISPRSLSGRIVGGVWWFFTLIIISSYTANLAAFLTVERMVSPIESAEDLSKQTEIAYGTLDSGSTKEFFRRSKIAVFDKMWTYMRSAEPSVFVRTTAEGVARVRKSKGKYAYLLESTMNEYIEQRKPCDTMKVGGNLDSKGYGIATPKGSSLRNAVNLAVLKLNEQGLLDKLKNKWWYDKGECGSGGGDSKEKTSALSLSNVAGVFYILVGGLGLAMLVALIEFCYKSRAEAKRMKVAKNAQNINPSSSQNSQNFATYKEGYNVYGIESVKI
Chain of Glutamate receptor AMPA 3/4 (Rattus norvegicus, UniProt P19492+P19493) (P19492 whole entry): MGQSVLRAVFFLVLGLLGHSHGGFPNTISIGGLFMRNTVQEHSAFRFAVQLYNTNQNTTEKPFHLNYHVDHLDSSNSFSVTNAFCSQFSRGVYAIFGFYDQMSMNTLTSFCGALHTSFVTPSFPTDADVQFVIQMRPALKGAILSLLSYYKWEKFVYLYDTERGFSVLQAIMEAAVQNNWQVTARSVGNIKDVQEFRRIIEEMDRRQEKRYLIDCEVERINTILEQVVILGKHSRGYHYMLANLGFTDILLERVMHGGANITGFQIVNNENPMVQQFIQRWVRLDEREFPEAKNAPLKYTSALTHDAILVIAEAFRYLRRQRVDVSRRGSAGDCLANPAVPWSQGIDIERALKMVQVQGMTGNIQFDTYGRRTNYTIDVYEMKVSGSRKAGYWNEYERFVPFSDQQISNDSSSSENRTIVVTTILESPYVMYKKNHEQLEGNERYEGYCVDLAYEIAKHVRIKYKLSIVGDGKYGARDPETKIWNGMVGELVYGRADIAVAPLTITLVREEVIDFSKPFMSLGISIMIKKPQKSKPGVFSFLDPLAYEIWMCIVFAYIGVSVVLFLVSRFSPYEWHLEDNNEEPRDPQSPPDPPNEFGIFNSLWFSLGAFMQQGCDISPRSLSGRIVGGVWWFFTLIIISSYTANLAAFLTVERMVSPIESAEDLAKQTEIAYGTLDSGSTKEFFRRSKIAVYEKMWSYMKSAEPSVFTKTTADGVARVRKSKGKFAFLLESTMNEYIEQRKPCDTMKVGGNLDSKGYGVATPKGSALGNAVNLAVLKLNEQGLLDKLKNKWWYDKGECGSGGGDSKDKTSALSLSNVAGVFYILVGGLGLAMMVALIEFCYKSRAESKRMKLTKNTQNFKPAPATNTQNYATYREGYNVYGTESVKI
Chain of Glutamate receptor AMPA 3/4 (Rattus norvegicus, UniProt P19492+P19493) (P19493 whole entry): as the sequence (P19493 whole entry) above
Chain of Glutamate receptor 1 (P42261 whole entry): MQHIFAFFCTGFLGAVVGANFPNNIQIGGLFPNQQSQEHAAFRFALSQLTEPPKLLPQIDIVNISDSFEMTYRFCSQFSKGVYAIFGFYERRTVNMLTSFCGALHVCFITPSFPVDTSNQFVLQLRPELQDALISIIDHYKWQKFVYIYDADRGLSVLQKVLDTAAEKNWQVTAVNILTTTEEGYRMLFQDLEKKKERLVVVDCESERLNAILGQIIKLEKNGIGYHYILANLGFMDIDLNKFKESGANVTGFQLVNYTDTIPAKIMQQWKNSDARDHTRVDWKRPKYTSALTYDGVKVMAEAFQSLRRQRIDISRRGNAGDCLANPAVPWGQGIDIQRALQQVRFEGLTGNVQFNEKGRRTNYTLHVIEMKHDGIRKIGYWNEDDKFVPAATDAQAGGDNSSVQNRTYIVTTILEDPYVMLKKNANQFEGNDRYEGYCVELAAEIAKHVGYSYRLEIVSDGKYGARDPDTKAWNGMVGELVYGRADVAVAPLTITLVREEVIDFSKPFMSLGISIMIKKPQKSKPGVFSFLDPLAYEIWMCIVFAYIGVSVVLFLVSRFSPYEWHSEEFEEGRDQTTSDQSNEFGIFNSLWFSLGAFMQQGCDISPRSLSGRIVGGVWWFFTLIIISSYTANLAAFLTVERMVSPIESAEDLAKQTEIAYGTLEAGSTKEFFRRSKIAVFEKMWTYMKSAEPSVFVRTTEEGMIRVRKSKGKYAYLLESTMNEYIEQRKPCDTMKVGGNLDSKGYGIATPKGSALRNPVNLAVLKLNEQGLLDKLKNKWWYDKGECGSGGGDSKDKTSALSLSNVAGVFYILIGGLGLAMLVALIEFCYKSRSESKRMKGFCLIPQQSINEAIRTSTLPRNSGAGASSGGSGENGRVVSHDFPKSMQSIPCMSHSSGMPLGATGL
Chain of Glutamate receptor 4 (Homo sapiens, UniProt P48058) (P48058 whole entry): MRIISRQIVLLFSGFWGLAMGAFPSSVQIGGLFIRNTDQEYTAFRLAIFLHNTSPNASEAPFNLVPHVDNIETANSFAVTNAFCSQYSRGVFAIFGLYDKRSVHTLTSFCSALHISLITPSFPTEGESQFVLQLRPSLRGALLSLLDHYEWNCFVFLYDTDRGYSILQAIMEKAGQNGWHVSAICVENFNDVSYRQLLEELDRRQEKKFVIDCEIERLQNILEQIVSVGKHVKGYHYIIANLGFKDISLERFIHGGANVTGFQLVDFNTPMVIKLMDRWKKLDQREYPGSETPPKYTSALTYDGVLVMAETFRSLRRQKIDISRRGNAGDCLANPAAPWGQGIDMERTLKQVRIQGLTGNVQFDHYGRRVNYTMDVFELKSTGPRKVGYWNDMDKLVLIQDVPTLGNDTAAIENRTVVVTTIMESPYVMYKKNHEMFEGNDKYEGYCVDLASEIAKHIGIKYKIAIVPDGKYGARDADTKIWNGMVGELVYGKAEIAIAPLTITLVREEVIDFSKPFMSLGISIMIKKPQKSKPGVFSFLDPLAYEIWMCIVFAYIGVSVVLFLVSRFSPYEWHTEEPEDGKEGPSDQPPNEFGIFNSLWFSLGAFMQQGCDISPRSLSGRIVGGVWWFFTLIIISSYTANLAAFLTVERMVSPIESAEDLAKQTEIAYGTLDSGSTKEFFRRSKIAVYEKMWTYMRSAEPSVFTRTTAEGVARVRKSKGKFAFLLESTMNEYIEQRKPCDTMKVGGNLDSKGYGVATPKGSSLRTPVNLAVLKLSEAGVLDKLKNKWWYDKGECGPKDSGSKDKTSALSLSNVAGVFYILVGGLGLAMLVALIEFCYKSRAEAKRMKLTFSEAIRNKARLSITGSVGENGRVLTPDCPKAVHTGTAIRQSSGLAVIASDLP

Q: For `CCN1CC[C@@H](c2ccc(-c3ccccc3)cc2)[C@H](NS(=O)(=O)C(C)C)C1`, which EC50 [1] is on record?
A: The EC50 was < 10 µM.

Q: Which EC50 (Glutamate receptor 2 [2]) does the source give for `CN(C)C(=O)c1ccc(-n2nc(C(F)(F)F)c3c2CCOC3)cc1` here?
A: Its EC50 is < 300 µM.

Q: And the Activity [3]?
A: Its Activity is 14%.

Q: With `CC(C)S(=O)(=O)N[C@@H]1CCC[C@@H]1c1ccc(Br)cc1` as the molecule, how does the EC50 (Glutamate receptor 4 [4]) read?
A: The EC50 was 0.52 µM.

Q: And the EC50 (Glutamate receptor 2 [5])?
A: The EC50 was 0.52 µM.

Q: Which EC50 (Glutamate receptor 2 [2]) does the source give for `CC(C)S(=O)(=O)N[C@@H]1CN(C)C[C@@H]1c1ccc(-c2ccc(N(C)S(C)(=O)=O)cc2)cc1` here?
A: Its EC50 is 1.6 µM.

Q: For `CC(CNS(C)(=O)=O)c1ccc(C(C)(C)C)cc1` (stereo unspecified), which EC50 (Glutamate receptor 4 [4]) is on record?
A: Its EC50 is 1.2 µM.

Q: Which EC50 (Glutamate receptor 3) does the source give for `CC(CNS(=O)(=O)C(C)C)c1ccc(-c2ccc(C#N)cc2)cc1` (stereo unspecified) here?
A: The EC50 was 1.66 µM.

Q: What about the EC50 [1] of the same molecule?
A: Its EC50 is 0.29 µM.

Q: What about the EC50 (Glutamate receptor 2 [6]) of the same molecule?
A: Its EC50 is 1.44 µM.

Q: What about the EC50 (Glutamate receptor 2 [5]) of the same molecule?
A: Its EC50 is 0.15 µM.

Q: What about the EC50 (Glutamate receptor 1) of the same molecule?
A: Its EC50 is 5.65 µM.

Q: What does the source list for `O=C(c1ccc2nccnc2c1)N1CCCCC1` [CX516]?
A: EC50 [7]: 95 µM; Activity (Rattus norvegicus): 68%; EC50 (Glutamate receptor 4 [4]): 156 µM and > 1000 µM

Q: Which EC50 [8] does the source give for `O=C(c1ccc2nonc2c1)N1CCCCC1` [FARAMPATOR] here?
A: The EC50 was 14 µM.

Q: Which results are given for `CC(=O)c1s/c(=N\c2ccc(OC(F)(F)F)cc2)n(CCO)c1C`?
A: EC50 (Glutamate receptor 2 [5]): < 200 µM; Activity [3]: 15%

Q: Which EC50 (Glutamate receptor 2 [2]) does the source give for `O=C1CCCN1Cc1ccc(-n2nc(C(F)(F)F)c3c2COCC3)cc1F` here?
A: The EC50 was < 300 µM.

Q: Which EC50 (Glutamate receptor 1) does the source give for `CC(C)S(=O)(=O)NCCCCCCCCNS(=O)(=O)C(C)C` here?
A: Its EC50 is 0.91 µM.

Q: For `O=C(Cn1nc(C(F)(F)F)c2c1CCCC2)Nc1sc2c(c1C(=O)NCCc1ccccn1)CCCC2`, which EC50 (Glutamate receptor 1) is on record?
A: The EC50 was < 10 µM.

Q: Which EC50 [8] does the source give for `COc1ccc(C(=O)N2CCCC2=O)cc1` here?
A: The EC50 was > 1000 µM.

Q: And the EC50 [9]?
A: Its EC50 is > 100 µM.

Q: For `O=S1(=O)N[C@H]2CCCN2c2ccc(Cl)cc21`, which EC2 [10] is on record?
A: The EC2 was 60 µM.

Q: Which EC50 (Glutamate receptor 2 [6]) does the source give for `C[C@@H](CNS(C)(=O)=O)c1ccccc1` here?
A: Its EC50 is 1980 µM.

Q: Which EC2 [10] does the source give for `NS(=O)(=O)c1cc2c(cc1Cl)NC(C1CC3C=CC1C3)NS2(=O)=O` (stereo unspecified) [CYCLOTHIAZIDE] here?
A: The EC2 was 1.6 µM.

Q: Which Activity (Rattus norvegicus) does the source give for `COCc1cccc(C(=O)N2CCCCC2)c1` here?
A: Its Activity is 25%.

Q: Which EC50 (Glutamate receptor 2 [2]) does the source give for `O=C1CCCN1[C@H]1Cc2ccc(-n3cc(C4CC4)c(C(F)(F)F)n3)cc2C1` here?
A: Its EC50 is < 300 µM.

Q: With `CC(C)S(=O)(=O)N[C@@H]1CCC[C@@H]1c1ccc(I)cc1` as the molecule, how does the EC50 (Glutamate receptor 4 [4]) read?
A: Its EC50 is 0.23 µM.

Q: For `CC(CNS(=O)(=O)C(C)C)c1ccc(Br)cc1` (stereo unspecified), which inhibition (Glutamate receptor 2 [11]) is on record?
A: The inhibition was 26%.

Q: With `C[C@H](CNS(C)(=O)=O)c1ccc(-c2ccc([C@@H](C)CNS(C)(=O)=O)cc2)cc1` as the molecule, how does the EC50 (Glutamate receptor 4 [12]) read?
A: The EC50 was 0.87 µM.

Q: With `CC(C)S(=O)(=O)NC[C@H](C)c1ccc(-c2ccc(CCNS(C)(=O)=O)cc2)cc1` [MIBAMPATOR] as the molecule, how does the EC50 (Glutamate receptor 4 [4]) read?
A: The EC50 was 0.15 µM.

Q: With `CC(C)S(=O)(=O)NCCCCCCCCCNS(=O)(=O)C(C)C` as the molecule, how does the EC50 (Glutamate receptor 1) read?
A: The EC50 was 0.66 µM.

Q: Which EC50 (Glutamate receptor 2 [2]) does the source give for `CC(C)S(=O)(=O)N[C@H]1Cc2ccc(-n3nc(C(F)(F)F)c4c3CCCC4)cc2C1` here?
A: Its EC50 is < 300 µM.

Q: For `O=C1c2cc3c(cc2OC2CCCN12)OCCO3` (stereo unspecified), which EC50 [7] is on record?
A: The EC50 was 43.7 µM.

Q: What about the EC50 (Glutamate receptor 1) of the same molecule?
A: The EC50 was 21 µM.

Q: Which EC50 [7] does the source give for `O=C(c1ccc2c(c1)OCCO2)N1CCCCC1` here?
A: The EC50 was 1600 µM.

Q: With `CC1(C)CC(=O)C2=C(C1)OC(N)=C(C#N)C2c1ccc2ccccc2c1` (stereo unspecified) as the molecule, how does the EC50 [8] read?
A: The EC50 was 1.6 µM.

Q: What about the EC2 [10] of the same molecule?
A: Its EC2 is 1.6 µM.

Q: Which EC2 [10] does the source give for `O=C1c2cc3nnn(CCc4cccc(F)c4)c(=O)c3cc2OCN1C1CC1` here?
A: Its EC2 is 0.1 µM.

Q: For `CC(C)S(=O)(=O)NCCCCCCCNS(=O)(=O)C(C)C`, which EC50 (Glutamate receptor 1) is on record?
A: The EC50 was 2.88 µM.
